Measured values taken from ChEMBL document CHEMBL3046777, “Synthesis of new phenylcarbamoylbenzoic acid derivatives and evaluation of their in vitro antioxidant activity” (Med Chem Res, 2012).

Test: Antioxidant activity assessed as […] by ABTS-spectrophotometric assay
Format: functional
Set-up: concentration or dose not given beside the values
Settings: dose or concentration not given here

In the case of `C/C(=N\N=C\c1ccc(Cl)cc1)c1ccc(NC(=O)c2ccccc2C(=O)O)cc1`, the inhibition is reported as 24.8%.
`COc1ccc(/C=N/NC(=O)c2ccc(NC(=O)c3ccccc3C(=O)O)cc2)cc1` showed an inhibition of 4.29%.
With `NNC(=O)c1ccc(NC(=O)c2ccccc2C(=O)O)cc1` the inhibition was 55.2%.
`O=C(N/N=C/c1ccc(Cl)cc1)c1ccc(NC(=O)c2ccccc2C(=O)O)cc1` showed an inhibition of 19.5%.
Work on `C/C(=N\N=C(/C)c1ccc(NC(=O)c2ccccc2C(=O)O)cc1)c1ccc(NC(=O)c2ccccc2C(=O)O)cc1` yielded an inhibition of 10.6%.
In the case of `CC(=O)c1ccc(NC(=O)c2ccccc2C(=O)O)cc1`, the inhibition is reported as 7.42%.
Compound `C/C(=N\N=C(/C)c1ccc(NC(=O)c2ccccc2C(=O)O)cc1)c1ccccc1` has an inhibition of 9.85%.
Compound `C/C(=N\N1C(=O)c2ccccc2C1=O)c1ccc(NC(=O)c2ccccc2C(=O)O)cc1` has an inhibition of 4.19%.
With `C/C(=N\NC(=O)c1ccc(NC(=O)c2ccccc2C(=O)O)cc1)c1ccc(NC(=O)c2ccccc2C(=O)O)cc1` the inhibition was 9.95%.
In the case of `C/C(=N\N)c1ccc(NC(=O)c2ccccc2C(=O)O)cc1`, the inhibition is reported as 18.2%.
For `C/C(=N\N=C\c1ccccc1)c1ccc(NC(=O)c2ccccc2C(=O)O)cc1`, the inhibition was 12.9%.
For `CCOC(=O)c1ccc(NC(=O)c2ccccc2C(=O)O)cc1`, the inhibition was 4.09%.
In the case of `C/C(=N\NC(=O)c1ccc(NC(=O)c2ccccc2C(=O)O)cc1)c1ccccc1`, the inhibition is reported as 2.63%.
Work on `O=C(N/N=C/c1ccccc1)c1ccc(NC(=O)c2ccccc2C(=O)O)cc1` yielded an inhibition of 8.78%.
`O=C(NN1C(=O)c2ccccc2C1=O)c1ccc(NC(=O)c2ccccc2C(=O)O)cc1` showed an inhibition of 8.39%.
For `COc1ccc(/C=N/N=C(\C)c2ccc(NC(=O)c3ccccc3C(=O)O)cc2)cc1`, the inhibition was 23%.
